Where two headings read alike, the source gives them in different places. Where a SMILES comes first, the peptide text is derived from it.
How the values were obtained:
[1] = Colistin plasma concentration at steady state in patients treated with intravenous CMS (HPLC); type: in vivo, human
Method: CMS for injection was used and dosed in millions of IU throughout the study. The drug was administered intravenously in 100 mL of normal saline over 30 min in the commercially available colistimethate formulation for injection (GES GenéricosEspañoles®), with each vial containing 80 mg CMS (equivalent to 1 million IU of CMS and about 30 mg of colistin base activity). As the policy of our hospital, CMS is reserved for the treatment of infections due to bacteria that are resistant to carbapenems and other antipseudomonal antibiotics except colistin and, eventually, aminoglycosides. Dose selection was at the discretion of the responsible clinicians. CMS doses ranged from 1 to 3 million IU every 8 h (3–9 millions IU daily). The following dose adjustments were made according to the package insert’s recommendations in patients with impaired renal function: GFR ≥ 76 mL/min/1.73 m^2, 4–6 million IU daily in three doses; GFR 40 to 75 mL/min/1.73 m^2, 2–3 million IU daily in 2 doses; GFR 25–40 mL/min/1.73 m^2, 1.5–2 million IU daily divided into 1 or 2 doses; and GFR < 25 mL/min/1.73 m^2, 0.6–1 million IU daily every 36 h. No loading-dose was administered to any included patient.
Measurement of the plasma colistin concentration was performed at the fourth day of treatment, when was assumed that the colistin concentrations had reached the steady state. The colistin plasma trough concentrations (Cmin) were measured just before the administration of CMS. The maximum plasma concentrations (Cmax) were obtained 30 min after the end of the CMS infusion (1 h after the start of infusion). A specialized nurse performed extraction of blood. Samples were immediately placed in a portable refrigerator (4 °C) to be processed in a refrigerated centrifuge (4 °C) at the laboratory. Colistin concentrations in the plasma were determined using a validated high-performance liquid chromatography (HPLC) method as reportedby Li et al., with minor modifications as described previously by our group.
Following Couet et al., Cmin was chosen because it is more convenient from a practical view point and because due to the colistin pharmacokinetic behavior, there can be CMS hydrolysis to colistinafter sample extraction resulting in an overestimation of the real in vivo colistin plasma concentration. This phenomenon can be minimized when CMS plasma concentrations are lower what occurs at the end of the dosing interval (when the Cmin is measured). Throughout the present paper, we have used the term “average colistin concentration at steady state (Css)” to refer to the Cmin.

[2] = test system: colistin-susceptible XDR P. aeruginosa; experiment: Clinical outcome (clinical cure, 30-day mortality) of patients with XDR P. aeruginosa infections treated with intravenous CMS; type: in vivo, human
Method: A prospective observational cohort study was conducted between January 2009 and January 2013 at a 450-bed teaching hospital in Barcelona, Spain. All patients who had microbiologically documented infections due to colistin-susceptible XDR-P.aeruginosa and were administered CMS for at least 72 h, were included in the study. Only microbiologically documented and clinically defined infections caused by colistin-susceptible XDR P. aeruginosa treated with colistin were considered. Acute bronchitis and tracheitis were excluded from the analysis due to the difficulty in differentiating true infection from colonization in patients with chronic obstructive pulmonary disease (COPD).
The primary end point was clinical cure, and the secondary 30-day all-cause mortality.
Clinical cure and failure were defined as resolution and persistence/worsening, respectively, of symptoms and signs of infection.
Thirty-day mortality was defined as death occurring within 30 days of beginning CMS treatment.
Clinical cure was defined as having resolved clinical signs and symptoms and/or no need for additional antibiotic therapy. Clinical failure was defined as an inadequate response to antibiotic therapy, with worsening, new/recurrent signs and symptoms or death.

[3] = in vivo
Method: The serum creatinine level and estimated glomerular filtration rate (GFR) were recorded at baseline, at the moment of colistin plasma extraction (day 4), on day 7 and at the EOT. […] The RIFLE criteria (Table 1) estimated with exclusion of the urinary output criterion, were used for the detection and stratification of acute kidney injury (AKI) [22]. AKI during CMS treatment was defined as a 1.5-fold or more increase in serum creatinine and/or a decrease in the GFR of 25% or more. These criteria needed to be fulfilled for at least 2 consecutive measurements 24 h apart during CMS treatment.

Q: With `CC[C@H](C)CCCCC(=O)N[C@@H](CCN)C(=O)N[C@H](C(=O)N[C@@H](CCN)C(=O)N[C@H]1CCNC(=O)[C@H]([C@@H](C)O)NC(=O)[C@H](CCN)NC(=O)[C@H](CCN)NC(=O)[C@H](CC(C)C)NC(=O)[C@@H](CC(C)C)NC(=O)[C@H](CCN)NC1=O)[C@@H](C)O` [colistin] (HELM PEPTIDE1{[CC[C@H](C)CCCCC(=O)[*:2]].[Dab].T.[Dab].[Dab].[Dab].[dL].L.[Dab].[Dab].T}$PEPTIDE1,PEPTIDE1,5:R3-11:R2$$$V2.0) as the molecule, how does the Css/MIC ([1]; all included patients n = 91, mean ± SD, SD) read?
A: 3.43 ± 2.91

Q: And the Cmax ([1]; human, iv, day 4, 30 min after end of 30-min CMS infusion, plasma, HPLC, mean ± SD, SD, read-out: Cmax (maximum plasma concentration))?
A: 1660 ± 1400 ng/mL

Q: And the level at 96 h ([1]; human, plasma, iv, day 4, just before administration of CMS, plasma, HPLC, mean ± SD, SD, read-out: Cmin (colistin plasma trough concentration))?
A: 1710 ± 1420 ng/mL

Q: What about the level at 96 h ([1]; human, plasma, iv, patients who achieved clinical cure, mean (SD), abstract, SD, read-out: Css) of the same molecule?
A: 1490 ng/mL

Q: And the level at 96 h ([1]; human, plasma, iv, patients who did not achieve clinical cure, mean (SD), p = 0.01, abstract, SD, read-out: Css)?
A: 2420 ng/mL

Q: What about the level at 96 h ([1]; human, plasma, iv, patients who died n = 28, day 4 trough, plasma, HPLC, mean ± SD, P = 0.011 vs survived, read-out: Css) of the same molecule?
A: 2100 ng/mL

Q: And the level at 96 h ([1]; human, plasma, iv, patients who survived n = 63, day 4 trough, plasma, HPLC, mean ± SD, read-out: Css)?
A: 1400 ng/mL

Q: What about the Css/MIC ([1]; patients who died n = 28, mean ± SD, P = 0.048 vs survived, SD) of the same molecule?
A: 4.2 ± 2.7

Q: And the “Css > 1.25 (mg/L), patients” value ([1]; patients who survived n = 63)?
A: 28 (44.4) n (%)

Q: And the Css/MIC ([1]; patients who survived n = 63, mean ± SD, SD)?
A: 3.1 ± 3

Q: And the Css/MIC ([1]; patients with clinical cure n = 72, mean ± SD, SD)?
A: 3.13 ± 2.9

Q: And the Css/MIC ([1]; patients with clinical failure n = 19, mean ± SD, P = 0.03 vs cure, SD)?
A: 4.61 ± 2.86

Q: With colistimethate sodium [CMS] as the molecule, how does the infection-related mortality rate ([2]; 13 patients died due to P. aeruginosa infection, n = 91) read?
A: 14.3%

Q: And the “30-day all-cause mortality rate” value ([2]; 28 of 91 patients, i.v. CMS)?
A: 30.9%

Q: And the “AKI RIFLE F at the EOT, patients” value [3]?
A: 11%

Q: What about the “AKI RIFLE F on day 7 of treatment, patients” value [3] of the same molecule?
A: 2.2%

Q: And the “AKI RIFLE I at the EOT, patients” value [3]?
A: 29.7%

Q: What about the “AKI RIFLE I on day 7 of treatment, patients” value [3] of the same molecule?
A: 9.9%

Q: And the “AKI RIFLE R at the EOT, patients” value [3]?
A: 13.2%

Q: And the “AKI RIFLE R on day 7 of treatment, patients” value [3]?
A: 20.9%

Q: And the “CMS dose modified because of AKI, patients” value [3]?
A: 17.5%

Q: What about the “GFR returned to baseline at the end of follow-up, patients” value [3] of the same molecule?
A: 35.1%

Q: And the “Impairment of renal function during CMS treatment at the EOT, patients” value [3]?
A: 53.8%

Q: And the “Impairment of renal function during CMS treatment on day 7, patients” value [3]?
A: 33%

Q: And the “Patients with AKI at day 7, F (Failure)” value [3]?
A: 2 (2.2) n (%)

Q: What about the “Patients with AKI at day 7, I (Injury)” value [3] of the same molecule?
A: 9 (9.9) n (%)

Q: And the “Patients with AKI at day 7, R (Risk)” value [3]?
A: 19 (20.9) n (%)

Q: And the “Patients with AKI at the EOT, F (Failure)” value [3]?
A: 10 (11) n (%)

Q: What about the “Patients with AKI at the EOT, I (Injury)” value [3] of the same molecule?
A: 27 (27.7) n (%)

Q: What about the “Patients with AKI at the EOT, R (Risk)” value [3] of the same molecule?
A: 12 (13.2) n (%)

Q: And the “persisted with some grade of impairment of renal function at the end of follow-up, patients” value [3]?
A: 2.1%
